# Results: patent publication US6610744B2, “Methods of treatment with compounds having RARα receptor specific or selective activity” (Allergan, Inc., priority 1995, dated 2003)
# Experiments:
# [1] = Guinea pig osmotic pump toxicity experiment; assay type: in vivo; conditions: guinea pigs, intraperitoneal osmotic pump, 14 days; for depression of weight gain relative to control: FIG. 8
# Procedure: In another experiment three-week old male Hartley guinea pigs were implanted intraperitonially with osmotic pumps containing 20% DMSO/80 polyethylene glycol (vehicle) or Compound 42 at concentrations of 4.4, 13.3 or 40 mg/ml in vehicle. Based on the initial body weights and known pumping rate, approximate doses of 0, 2, 6, and 18 mg/kg/day doses of Compound 42 are estimated. Body weights and clinical observations were recorded at least every other day for 14 days post-implantation. The guinea pigs were euthanized after 14 days, and the pumps were examined for possible failure.
# [2] = tested on: limb bud mesenchymal cells; assay: Chondrogenesis suppression bioassay (teratogenic potency); assay type: cell-based; conditions: read-out: IC50 (50% inhibition of chondrogenesis); mouse limb bud spot cultures, 96 hours after plating; greater IC50 signifies lesser teratogenecity
# Procedure: High-density “spot” cultures of limb bud mesenchymal cells are used to compare the ability of various concentrations of test drugs to suppress chondrogenic differentiation as a bioassay. Forelimb buds of mouse embryos on day 12 of gestation (54±2 somites) are dissociated in a trypsin-EDTA solution, and the resultant single-cell suspension is plated as 20-μl spots (200,000 cells/spot) on plastic culture dishes. Retinoid concentrations ranging from 0.3 ng/ml to 3 μg/ml (1 nM−10 μM) are added to the culture medium (Eagle's MEM±10% fetal bovine serum, GIBCO) 24 hours after initial plating. Control cultures receive only the vehicle (ethanol, concentration≦1% by vol); Retinoic acid is used as a positive control in another set of cultures.
# The cultures are terminated 96 hours after plating, at which time the medium is removed and the cells are fixed for 1 hour in 10% formalin containing 0.5% cetylpyridinium chloride. The cultures are rinsed in acetic acid and stained for 1 hour in 0.5% Alcian blue solution at pH 1.0, differentiated in 3% acetic acid, and then dehydrated in ethanol and scored for chondrogenesis under the microscope. An absence or reduction in the number of cartilage nodules in stained cultures as compared with control cultures is taken as a measure of suppression of chondrogenesis. The number of cartilage nodules stained in the whole spot, mean number of nodules, and standard deviations are calculated for four replicate cultures per treatment. […] The IC50 values are expressed in nanogram per mililiter (ng/ml) units. An IC50 value of greater concentration in this assay signifies lesser teratogenecity.
# [3] = tested on: retinal pigment epithelium (RPE) cells; assay: Primary RPE culture proliferation; assay type: cell-based, human; conditions: FIG. 5; 10^−10 to 10^−6 M, six days treatment
# Procedure: Primary cultures of human retinal pigment epithelium (RPE) were established from eyes as previously described, (Campochiaro et al., Invest. Opthal & Vis. Sci. 32:65-72 (1991)). 5×10^4 Cells were plated in 16-mm wells of 24-well multiwell plates in Dulbecco's modified Eagle's medium (DMEM Gibco) containing 10% fetal bovine serum (FBS). Cells were treated with ethanol alone (control), ATRA (10^−10 to 10^−6 M) in ethanol, and Compound 42 (10^−10 to 10^−6 M) in ethanol. Cells were fed with fresh media containing the appropriate concentrations of these compounds every two days for a total of six days treatment. Cells were removed from the plates via treatment with trypsin and the number of cells were counted with an electronic cell counter.
# [4] = tested on: AML-193 cells (acute monocytic leukemia); assay: AML 193 cell culture assay (3H-thymidine incorporation); assay type: cell-based, human; conditions: FIG. 2
# Procedure, shortened: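 t-RA from 1 mM ethanol stock, diluted in medium; ethanol-matched controls, subdued light. AML-193 cells (GM-CSF/insulin-dependent) at 1,000 cells/well incubated 96 h at 37 °C with retinoids, then 6 h with 1 μCi [3H]-thymidine; TCA-precipitated DNA counted by scintillation, mean dpm of triplicates ±SEM.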
smiles,measurement,setting,value
CC(C)(C)c1cc(C(=O)Nc2ccc(C(=O)O)c(F)c2)cc(C(C)(C)C)n1 [Compound 42],mucocutaneous toxicity,"[1]; any dose (2, 6, 18 mg/kg/day)",no signs of mucocutaneous toxicity
same,depression of weight gain relative to control,[1]; high dose (18 mg/kg/day),Significant depression of weight gain
same,depression of weight gain relative to control,[1]; lower and middle doses (approx. 2 and 6 mg/kg/day),"no, or only statistically insignificant depression of weight gain"
same,IC50,[2],0.065 µg/mL
same,RPE cell proliferation,[3],dose dependent decrease in RPE cell proliferation
same,growth of AML 193 malignant cells,[4]; 96 hours,inhibited the growth
same,growth of AML 193 cells at low concentrations,[4]; low concentrations,inhibit the malignant cell growth at low concentrations
